Data: BindingDB's records for doi:10.1021/cc060110n (University of Mississippi, 2007)

Experiments:
L-lactate dehydrogenase = L-lactate dehydrogenase (Plasmodium falciparum, UniProt B9UDZ5); test: Enzyme Assay
Source text: (§1) Enzyme assay using recombinant pfLDH and mLDH (bovine heart).

[1] = target: L-lactate dehydrogenase B chain (Bos taurus, UniProt Q5E9B1); test: Enzyme Assay
Source text: as §1

L-lactate dehydrogenase B chain, sequence (Q5E9B1 whole entry): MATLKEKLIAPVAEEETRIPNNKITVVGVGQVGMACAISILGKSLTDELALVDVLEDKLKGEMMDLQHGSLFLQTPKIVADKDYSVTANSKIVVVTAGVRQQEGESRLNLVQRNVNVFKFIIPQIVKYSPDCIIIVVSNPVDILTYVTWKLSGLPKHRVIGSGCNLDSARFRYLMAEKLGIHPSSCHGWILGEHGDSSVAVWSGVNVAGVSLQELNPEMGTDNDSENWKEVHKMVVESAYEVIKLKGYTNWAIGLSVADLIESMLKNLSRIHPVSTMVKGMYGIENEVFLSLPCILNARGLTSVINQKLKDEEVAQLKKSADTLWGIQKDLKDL
L-lactate dehydrogenase, sequence (B9UDZ5 whole entry): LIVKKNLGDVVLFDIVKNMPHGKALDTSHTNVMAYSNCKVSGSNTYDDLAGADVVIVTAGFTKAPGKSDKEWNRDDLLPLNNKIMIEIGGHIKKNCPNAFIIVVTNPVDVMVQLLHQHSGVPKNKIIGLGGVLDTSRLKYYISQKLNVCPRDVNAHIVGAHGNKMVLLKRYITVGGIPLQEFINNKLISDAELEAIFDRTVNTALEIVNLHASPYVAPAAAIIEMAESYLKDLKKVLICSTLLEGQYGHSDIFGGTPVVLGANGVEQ

IC50 (L-lactate dehydrogenase) [µM] | IC50 [1] [µM] | SMILES
35 | 90 | O=C(O)C(=O)NCCC(c1ccccc1)c1ccccc1 [Oxamic Acid/Ester, 36]
94.4 | – | NC(=O)C(=O)O [carbamoylformic acid]
160 | > 200 | CCCCCCCNC(=O)C(=O)O [Oxamic Acid/Ester, 10]
> 200 | > 200 | C=CCN(C(=O)C(=O)O)C1CCCCC1 [Oxamic Acid/Ester, 29]
> 200 | > 200 | CC(C)CNC(=O)C(=O)O [Oxamic Acid/Ester, 40]
97.9 | 107 | Cc1cccc(N(C(=O)C(=O)O)c2ccccc2)c1 [Oxamic Acid/Ester, 7]
> 200 | > 200 | CCCCCN(C)C(=O)C(=O)O [Oxamic Acid/Ester, 28]
> 200 | > 200 | CN(C(=O)C(=O)O)c1ccccc1 [Oxamic Acid/Ester, 24]
47 | 133 | CCCCCCNC(=O)C(=O)O [Oxamic Acid/Ester, 23]
> 200 | 158 | CCc1ccccc1N(Cc1ccccc1)C(=O)C(=O)O [Oxamic Acid/Ester, 8]
> 200 | > 200 | CCC(C)NC(=O)C(=O)O (stereo not drawn) [Oxamic Acid/Ester, 31]
> 200 | 150 | CCCCCCCCCCCCCCCCNC(=O)C(=O)O [Oxamic Acid/Ester, 14]
> 200 | > 200 | COc1ccccc1NC(=O)C(=O)O [Oxamic Acid/Ester, 6]
51 | > 200 | O=C(O)C(=O)NCCc1ccc(Br)cc1 [Oxamic Acid/Ester, 42]
169 | 46 | O=C(O)C(=O)N1CCN(Cc2ccccc2)CC1 [Oxamic Acid/Ester, 19]
> 200 | 186 | CN(Cc1ccco1)C(=O)C(=O)O [Oxamic Acid/Ester, 16]
43 | 31 | COCCCNC(=O)C(=O)O [Oxamic Acid/Ester, 25]
88 | > 200 | CCCCCCCCCNC(=O)C(=O)O [Oxamic Acid/Ester, 26]

IC50 (L-lactate dehydrogenase) [µM] | IC50 [1] [µM] | SMILES
157 | > 200 | CC(C)CCNC(=O)C(=O)O [Oxamic Acid/Ester, 34]
> 200 | > 200 | C=CCN(C)C(=O)C(=O)O [Oxamic Acid/Ester, 11]
101 | 59 | O=C(O)C(=O)N1CCC(Cc2ccccc2)CC1 [Oxamic Acid/Ester, 20]
41 | 88 | O=C(O)C(=O)NCCCCc1ccccc1 [Oxamic Acid/Ester, 41]
> 200 | > 200 | O=C(O)C(=O)NCc1ccco1 [Oxamic Acid/Ester, 39]
14 | 25 | COCCNC(=O)C(=O)O [Oxamic Acid/Ester, 21]
> 200 | 168 | CN(Cc1ccccc1)C(=O)C(=O)O [Oxamic Acid/Ester, 30]
59 | 20 | CC(C)c1ccc2c(c1)CCC1[C@](C)(CNC(=O)C(=O)O)CCC[C@]21C (stereo partly drawn) [Oxamic Acid/Ester, 18]
> 200 | > 200 | CCCCNC(=O)C(=O)O [Oxamic Acid/Ester, 12]
> 200 | 32 | O=C(O)C(=O)N1CCN(c2ccccc2)CC1 [Oxamic Acid/Ester, 27]
> 200 | > 200 | O=C(O)C(=O)N(Cc1ccccc1)Cc1ccccc1 [Oxamic Acid/Ester, 32]
188 | > 200 | O=C(O)C(=O)NCC1CCCO1 (stereo not drawn) [Oxamic Acid/Ester, 35]
> 200 | > 200 | Cc1ccc(CNC(=O)C(=O)O)o1 [Oxamic Acid/Ester, 15]
> 200 | > 200 | O=C(O)C(=O)N(Cc1ccccc1)c1ccccc1 [Oxamic Acid/Ester, 22]
> 200 | 43 | CC1CCCCN1C(=O)C(=O)O (stereo not drawn) [Oxamic Acid/Ester, 33]
43 | > 200 | O=C(O)C(=O)NCc1cccc2ccccc12 [Oxamic Acid/Ester, 17]
146 | > 200 | CC(NC(=O)C(=O)O)c1cccc2c1CCCC2 (stereo not drawn) [Oxamic Acid/Ester, 38]
> 200 | > 200 | CSc1cccc(NC(=O)C(=O)O)c1 [Oxamic Acid/Ester, 37]

SMILES | IC50 (L-lactate dehydrogenase) [µM] | IC50 [1] [µM]
Cc1cc2c(C(C)C)c(O)c(O)c(C=O)c2c(O)c1-c1c(C)cc2c(C(C)C)c(O)c(O)c(C=O)c2c1O [Tash 1] | 3.97 | 6.9
